Reference: patent US7795261B2, “Substituted 1-piperidin-4-yl-4-pyrrolidin-3-yl-piperazine derivatives and their use as neurokinin antagonists” (Janssen Pharmaceutica NV, priority 2002, dated 2010)

What was measured:
NK1 = NK1 (Homo sapiens, UniProt P25103); test: Signal transduction (ST), intracellular Ca++ (FLIPR), NK1 antagonistic activity; assay type: cell-based; settings: read-out: pIC50 NK1 (converted)
Outline: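 Antagonist IC50 was fitted by non-linear regression of peak intracellular Ca++ signals measured on FLIPR after agonist challenge. Beforehand, Fluo3-loaded confluent cells received antagonists over a concentration range for 20 min at room temperature in Ca++ Krebs buffer, pH 7.4.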

NK3 = biological target: T1, NK3 (Homo sapiens, UniProt P29371); test: Signal transduction (ST), intracellular Ca++ (FLIPR), NK3; assay type: cell-based; settings: read-out: pIC50 NK3 (converted)
T1 sequence (P29371 1-465): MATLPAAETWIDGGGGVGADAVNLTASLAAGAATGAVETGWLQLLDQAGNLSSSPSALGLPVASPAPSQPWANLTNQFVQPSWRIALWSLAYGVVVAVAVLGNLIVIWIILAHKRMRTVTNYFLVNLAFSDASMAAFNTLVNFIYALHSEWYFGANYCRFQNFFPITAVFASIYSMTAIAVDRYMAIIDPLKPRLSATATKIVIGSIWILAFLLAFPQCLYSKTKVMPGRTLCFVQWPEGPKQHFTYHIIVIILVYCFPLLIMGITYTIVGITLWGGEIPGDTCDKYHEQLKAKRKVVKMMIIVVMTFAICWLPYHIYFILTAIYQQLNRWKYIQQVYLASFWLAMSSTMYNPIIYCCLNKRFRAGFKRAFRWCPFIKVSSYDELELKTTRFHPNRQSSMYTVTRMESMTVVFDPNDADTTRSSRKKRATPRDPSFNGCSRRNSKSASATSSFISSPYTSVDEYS
Experimental: [The procedure below names another target; the source lists this target under the same test.] This test evaluates in vitro functional NK1 antagonistic activity. For the measurements of intracellular Ca^++ concentrations the cells were grown on 96-well (black wall/transparent bottom) plates from Costar for 2 days until they reached confluence. The cells were loaded with 2 μM Fluo3 in DMEM containing 0.1% BSA and 2.5 mM probenecid for 1 h at 37° C. They were washed 3× with a Krebs buffer (140 mM NaCl, 1 mM MgCl2×6H2O, 5 mM KCl, 10 mM glucose, 5 mM HEPES; 1.25 mM CaCl2; pH 7.4) containing 2.5 mM probenecid and 0.1% BSA (Ca^++-buffer). The cells were preincubated with a concentration range of antagonists for 20 min at RT and Ca^++-signals after addition of the agonists were measured in a Fluorescence Image Plate Reader (FLIPR from Molecular Devices, Crawley, England). The peak of the Ca^++-transient was considered as the relevant signal and the mean values of corresponding wells were analysed as described below.
The sigmoidal dose response curves were analysed by computerised curve-fitting, using the GraphPad Program. […] For antagonist responses the IC50-value was calculated using non-linear regression.
The last columns indicates—without being limited therefore—for which the compounds might be most suitable. Of course, since for some neurokinin receptors no data was determined, it is obvious that these compounds might be attributed to another suitable use.

Sequence of NK1 (P25103 whole entry): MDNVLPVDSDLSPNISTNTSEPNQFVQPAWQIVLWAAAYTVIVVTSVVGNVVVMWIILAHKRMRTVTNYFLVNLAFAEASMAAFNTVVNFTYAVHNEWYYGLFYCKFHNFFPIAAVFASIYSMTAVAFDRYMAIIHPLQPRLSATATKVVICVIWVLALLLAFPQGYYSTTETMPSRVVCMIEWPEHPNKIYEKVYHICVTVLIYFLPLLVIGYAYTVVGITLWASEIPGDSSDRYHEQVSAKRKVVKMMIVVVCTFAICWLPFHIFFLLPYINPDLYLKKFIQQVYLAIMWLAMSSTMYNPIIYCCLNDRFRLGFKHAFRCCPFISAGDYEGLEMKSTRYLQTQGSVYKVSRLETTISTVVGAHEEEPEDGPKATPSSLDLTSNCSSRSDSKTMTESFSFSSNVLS

Row | IC50 (NK1) [nM] | IC50 (NK3) [nM] | SMILES
1 | 12.6 | 2000 | CN(C)C(=O)N1CCC(N2CCN([C@H]3CCN(C(=O)c4cc(C(F)(F)F)cc(C(F)(F)F)c4)[C@H](Cc4ccccc4)C3)CC2)C1 (stereo partly drawn) [Compound 145]
2 | 12.6 | 3160 | Cc1nnsc1C(=O)N1CCC(N2CCN(C3CCN(C(=O)c4cc(C(F)(F)F)cc(C(F)(F)F)c4)C(Cc4ccc(Cl)c(Cl)c4)C3)CC2)C1 (stereo not drawn) [Compound 161]
3 | 6.31 | 1580 | O=C(c1snnc1CO)N1CCC(N2CCN(C3CCN(C(=O)c4cc(C(F)(F)F)cc(C(F)(F)F)c4)C(Cc4ccccc4)C3)CC2)C1 (stereo not drawn) [Compound 166]
4 | 7.94 | 501 | O=C(c1cccnc1Cl)N1CCC(N2CCN([C@H]3CCN(C(=O)c4cc(C(F)(F)F)cc(C(F)(F)F)c4)[C@H](Cc4ccccc4)C3)CC2)C1 (stereo partly drawn) [Compound 168]
5 | 63.1 | 2510 | COCC(=O)N1CCC(N2CCN(C3CCN(C(=O)c4cc(C(F)(F)F)cc(C(F)(F)F)c4)C(Cc4ccccc4)C3)CC2)C1 (stereo not drawn) [Compound 177]
6 | 6.31 | 1580 | O=C(C1CCC1)N1CCC(N2CCN([C@H]3CCN(C(=O)c4cc(C(F)(F)F)cc(C(F)(F)F)c4)[C@H](Cc4ccccc4)C3)CC2)C1 (stereo partly drawn) [Compound 179]
7 | 15.8 | 5010 | CC(=O)N1CCCC1C(=O)N1CCC(N2CCN([C@H]3CCN(C(=O)c4cc(C(F)(F)F)cc(C(F)(F)F)c4)[C@H](Cc4ccccc4)C3)CC2)C1 (stereo partly drawn) [Compound 187]
8 | 25.1 | 2000 | O=C(C(=O)N1CCC(N2CCN([C@H]3CCN(C(=O)c4cc(C(F)(F)F)cc(C(F)(F)F)c4)[C@H](Cc4ccccc4)C3)CC2)C1)c1cccs1 (stereo partly drawn) [Compound 188]
9 | 7.94 | 251 | CC(C)(C)OC(=O)N1CCC[C@@H]1C(=O)N1CCC(N2CCN([C@H]3CCN(C(=O)c4cc(C(F)(F)F)cc(C(F)(F)F)c4)[C@H](Cc4ccccc4)C3)CC2)C1 (stereo partly drawn) [Compound 189]
10 | 12.6 | 398 | N#Cc1ccccc1C(=O)N1CCC(N2CCN(C3CCN(C(=O)c4cc(C(F)(F)F)cc(C(F)(F)F)c4)C(Cc4ccccc4)C3)CC2)C1 (stereo not drawn) [Compound 195]
11 | 31.6 | 2510 | CC(=O)N1CCC(N2CCN([C@H]3CCN(C(=O)c4cc(C(F)(F)F)cc(C(F)(F)F)c4)[C@H](Cc4ccccc4)C3)CC2)C1 (stereo partly drawn) [Compound 198]
12 | 10 | 1580 | CC(C)C(=O)N1CCC(N2CCN([C@H]3CCN(C(=O)c4cc(C(F)(F)F)cc(C(F)(F)F)c4)[C@H](Cc4ccccc4)C3)CC2)C1 (stereo partly drawn) [Compound 199]
13 | 7.94 | 398 | CC(C)(C)CC(=O)N1CCC(N2CCN([C@H]3CCN(C(=O)c4cc(C(F)(F)F)cc(C(F)(F)F)c4)[C@H](Cc4ccccc4)C3)CC2)C1 (stereo partly drawn) [Compound 200]
14 | 39.8 | 6310 | CN(C)CC(=O)N1CCC(N2CCN([C@H]3CCN(C(=O)c4cc(C(F)(F)F)cc(C(F)(F)F)c4)[C@H](Cc4ccccc4)C3)CC2)C1 (stereo partly drawn) [Compound 202]
15 | 20 | 1000 | O=C(c1cc(C(F)(F)F)cc(C(F)(F)F)c1)N1CCC(N2CCN(C3CCN(C(=O)C(F)(F)F)C3)CC2)CC1Cc1ccccc1 (stereo not drawn) [Compound 203]
16 | 25.1 | 2510 | O=C(c1cc(C(F)(F)F)cc(C(F)(F)F)c1)N1CCC(N2CCN(C3CCN(c4noc5ccccc45)C3)CC2)CC1Cc1ccccc1 (stereo not drawn) [Compound 204]
17 | 20 | 3980 | O=C(CNc1ccccc1CO)N1CCC(N2CCN(C3CCN(C(=O)c4cc(C(F)(F)F)cc(C(F)(F)F)c4)C(Cc4ccccc4)C3)CC2)C1 (stereo not drawn) [Compound 207]
18 | 15.8 | 2510 | O=C(Cn1cnc2ccccc21)N1CCC(N2CCN([C@H]3CCN(C(=O)c4cc(C(F)(F)F)cc(C(F)(F)F)c4)[C@H](Cc4ccccc4)C3)CC2)C1 (stereo partly drawn) [Compound 208]
19 | 15.8 | 7940 | CC(C)(C)OC(=O)N1CCC(C(=O)N2CCC(N3CCN([C@H]4CCN(C(=O)c5cc(C(F)(F)F)cc(C(F)(F)F)c5)[C@H](Cc5ccccc5)C4)CC3)C2)CC1 (stereo partly drawn) [Compound 210]
20 | 20 | 1580 | O=C([C@H]1CCCN1)N1CCC(N2CCN([C@H]3CCN(C(=O)c4cc(C(F)(F)F)cc(C(F)(F)F)c4)[C@H](Cc4ccccc4)C3)CC2)C1 (stereo partly drawn) [Compound 213]

Row | IC50 (NK1) [nM] | IC50 (NK3) [nM] | SMILES
21 | 20 | 3980 | O=C1CCCN1CC(=O)N1CCC(N2CCN([C@H]3CCN(C(=O)c4cc(C(F)(F)F)cc(C(F)(F)F)c4)[C@H](Cc4ccccc4)C3)CC2)C1 (stereo partly drawn) [Compound 214]
22 | 31.6 | 5010 | O=C(CN1CCOC1=O)N1CCC(N2CCN([C@H]3CCN(C(=O)c4cc(C(F)(F)F)cc(C(F)(F)F)c4)[C@H](Cc4ccccc4)C3)CC2)C1 (stereo partly drawn) [Compound 215]
23 | 25.1 | 6310 | CC(C)(C)OC(=O)N1CCC(C(=O)N2CCC(N3CCN([C@H]4CCN(C(=O)c5cc(C(F)(F)F)cc(C(F)(F)F)c5)[C@H](Cc5ccccc5)C4)CC3)C2)C1 (stereo partly drawn) [Compound 228]
24 | 31.6 | 2510 | CC(C)(C)OC(=O)N1CCCC(C(=O)N2CCC(N3CCN([C@H]4CCN(C(=O)c5cc(C(F)(F)F)cc(C(F)(F)F)c5)[C@H](Cc5ccccc5)C4)CC3)C2)C1 (stereo partly drawn) [Compound 229]
25 | 10 | 3980 | O=C(C1CCOC1)N1CCC(N2CCN(C3CCN(C(=O)c4cc(C(F)(F)F)cc(C(F)(F)F)c4)C(Cc4ccc(F)cc4)C3)CC2)C1 (stereo not drawn) [Compound 274]
26 | 10 | 2510 | O=C(C1CC1)N1CCC(N2CCN(C3CCN(C(=O)c4cc(C(F)(F)F)cc(C(F)(F)F)c4)C(Cc4ccc(F)cc4)C3)CC2)C1 (stereo not drawn) [Compound 277]
27 | 126 | 3980 | O=C(c1ccc(CCOCc2ccccc2)s1)N1CCC(N2CCN(C3CCN(C(=O)c4cc(C(F)(F)F)cc(C(F)(F)F)c4)C(Cc4ccccc4)C3)CC2)C1 (stereo not drawn) [Compound 356]
28 | 12.6 | 3980 | Cc1nc2c(o1)CCn1ccnc1C2N1CCC(N2CCN(C3CCN(C(=O)c4cc(C(F)(F)F)cc(C(F)(F)F)c4)C(Cc4ccccc4)C3)CC2)C1 (stereo not drawn) [Compound 375]
29 | 25.1 | 3980 | CC1(C)OCC(CNC(=C[N+](=O)[O-])N2CCC(N3CCN([C@H]4CCN(C(=O)c5cc(C(F)(F)F)cc(C(F)(F)F)c5)[C@H](Cc5ccccc5)C4)CC3)C2)O1 (stereo partly drawn) [Compound 376]
30 | 15.8 | 6310 | O=C(c1cc(C(F)(F)F)cc(C(F)(F)F)c1)N1CC[C@H](N2CCN(C3CCN(C(=C[N+](=O)[O-])N4CCCC4)C3)CC2)C[C@H]1Cc1ccccc1 (stereo partly drawn) [Compound 377]
31 | 31.6 | 3980 | CC(C)N1CC(CN2CCC(N3CCN(C4CCN(C(=O)c5cc(C(F)(F)F)cc(C(F)(F)F)c5)C(Cc5ccccc5)C4)CC3)C2)OC1=O (stereo not drawn) [Compound 385]
32 | 20 | 5010 | O=C1CC[C@@H](C(=O)N2CCC(N3CCN([C@H]4CCN(C(=O)c5cc(C(F)(F)F)cc(C(F)(F)F)c5)[C@H](Cc5ccccc5)C4)CC3)C2)O1 (stereo partly drawn) [Compound 386]
33 | 20 | 5010 | O=C1CC[C@H](C(=O)N2CCC(N3CCN([C@H]4CCN(C(=O)c5cc(C(F)(F)F)cc(C(F)(F)F)c5)[C@H](Cc5ccccc5)C4)CC3)C2)O1 (stereo partly drawn) [Compound 387]
34 | 15.8 | 794 | CC(C)(C)OCC(=O)N1CCC(N2CCN([C@H]3CCN(C(=O)c4cc(C(F)(F)F)cc(C(F)(F)F)c4)[C@H](Cc4ccccc4)C3)CC2)C1 (stereo partly drawn) [Compound 388]
35 | 15.8 | 6310 | CC(=O)OCC(=O)N1CCC(N2CCN(C3CCN(C(=O)c4cc(C(F)(F)F)cc(C(F)(F)F)c4)C(Cc4ccccc4)C3)CC2)C1 (stereo not drawn) [Compound 389]
36 | 20 | 3160 | CC(C)(C)OCCC(=O)N1CCC(N2CCN(C3CCN(C(=O)c4cc(C(F)(F)F)cc(C(F)(F)F)c4)C(Cc4ccccc4)C3)CC2)C1 (stereo not drawn) [Compound 391]
37 | 251 | 7940 | CC1(C)OC(=O)[C@@H](CC(=O)N2CCC(N3CCN([C@H]4CCN(C(=O)c5cc(C(F)(F)F)cc(C(F)(F)F)c5)[C@H](Cc5ccccc5)C4)CC3)C2)O1 (stereo partly drawn) [Compound 392]
38 | 31.6 | 2000 | COCCC(=O)N1CC[C@H](N2CCN([C@H]3CCN(C(=O)c4cc(C(F)(F)F)cc(C(F)(F)F)c4)[C@H](Cc4ccccc4)C3)CC2)C1 [Compound 413]
39 | 39.8 | 631 | COCCC(=O)N1CC[C@@H](N2CCN([C@H]3CCN(C(=O)c4cc(C(F)(F)F)cc(C(F)(F)F)c4)[C@H](Cc4ccccc4)C3)CC2)C1 [Compound 414]
